Assay results reported in ChEMBL document CHEMBL1614632, “Trend analysis of a database of intravenous pharmacokinetic parameters in humans for 670 drug compounds” (Drug Metab Dispos, 2008).
Numbered stars: 1 amine (or outer) side, 2 acyl side, 3 side chain; on linkers, the order of the positions; unused ones are H or OH. Bridge positions count the residues as written; N and C are the ends. Square brackets hold non-standard residues; d marks the D form. Peptide text beside a SMILES is read from it. * marks the point of attachment. pTerphenylCO(4''-OnC5H11) = CCCCCOc1ccc(-c2ccc(-c3ccc(C(=O)*)cc3)cc2)cc1; Orn(4R-OH,5R-OH) = O=C([C@H](C[C@@H](O)[C@@H](O)N[*:3])N[*:1])[*:2]; hTyr(3S-OH,4S-OH) = N[C@H](C(=O)O)[C@H](O)[C@@H](O)c1ccc(O)cc1; Pro(3S-OH,4S-Me) = C[C@H]1CN[C@H](C(=O)O)[C@H]1O; Hyp = O=C(O)[C@@H]1C[C@@H](O)CN1

What was measured:
clinical [1] = settings: human, in vivo, iv, t1/2
clinical [2] = settings: human, in vivo, iv, Vdss
clinical [3] = settings: human, in vivo, iv, CL
clinical [4] = settings: human, in vivo, iv

Row | SMILES | half-life (clinical [1]) [h] | Vd (clinical [2]) [L/kg] | clearance (clinical [3]) [mL/min/kg] | MRT (clinical [4]) [h]
1 | C[C@](N)(Cc1ccc(O)c(O)c1)C(=O)O [METHYLDOPA] | 5.9 | 0.69 | 3.5 | 3.3
2 | Cn1cc(NC(=O)Nc2cc(C(=O)Nc3cc(C(=O)Nc4ccc5cc(S(=O)(=O)O)cc(S(=O)(=O)O)c5c4)n(C)c3)n(C)c2)cc1C(=O)Nc1cc(C(=O)Nc2ccc3cc(S(=O)(=O)O)cc(S(=O)(=O)O)c3c2)n(C)c1 | 730 | 0.27 | 0.0047 | 960
3 | CCCCCC/C=C\CCCCCCCCCC(=O)N[C@H]1[C@H](OC[C@H]2O[C@H](OP(=O)(O)O)[C@H](NC(=O)CC(=O)CCCCCCCCCCC)[C@@H](OCCCCCCCCCC)[C@@H]2O)O[C@H](COC)[C@@H](OP(=O)(O)O)[C@@H]1OCC[C@@H](CCCCCCC)OC [ERITORAN] | 51 | 0.048 | 0.013 | 62
4 | CCCCNc1cc(C(=O)O)cc(S(N)(=O)=O)c1Oc1ccccc1 [BUMETANIDE] | 1.2 | 0.16 | 2.5 | 1.1
5 | Cc1ccsc1C(=CCCN1CCC[C@@H](C(=O)O)C1)c1sccc1C [TIAGABINE] | 10 | 1.1 | 1.6 | 12
6 | CC(CC(c1ccccc1)c1ccccc1)NC(C)(C)C (centres undefined) [TERODILINE] | 56 | 5.1 | 1.1 | 81
7 | NC[C@H]1CC[C@H](C(=O)O)CC1 [TRANEXAMIC ACID] | 2.3 | 0.38 | 2.4 | 2.6
8 | CC(C)[C@@H](CC[C@@H](C)[C@H]1CC[C@H]2[C@@H]3[C@H](O)C[C@H]4C[C@@H](NCCCNCCCCN)CC[C@]4(C)[C@H]3CC[C@]12C)OS(=O)(=O)O [SQUALAMINE] | 9.5 | 0.23 | 1.2 | 3.2
9 | CCCCCN(CCCOC)C(=O)[C@@H](CCC(=O)O)NC(=O)c1ccc(Cl)c(Cl)c1 [DEXLOXIGLUMIDE] | 1.2 | 0.18 | 3.7 | 0.79
10 | C[C@H]1COc2c(N3CCN(C)CC3)c(F)cc3c(=O)c(C(=O)O)cn1c23.C[C@H]1COc2c(N3CCN(C)CC3)c(F)cc3c(=O)c(C(=O)O)cn1c23.O [LEVOFLOXACIN] | 8.8 | 1.2 | 1.9 | 11
11 | CS(=O)(=O)OCCCCOS(C)(=O)=O [BUSULFAN] | 3.4 | 0.55 | 2.4 | 3.8
12 | C[C@H]1O[C@@H](n2cc(F)c(=O)[nH]c2=O)[C@H](O)[C@@H]1O [DOXIFLURIDINE] | 0.35 | 0.28 | 11 | 0.46
13 | C[C@@H]1C(=O)O[C@H]2C[C@@]34[C@H]5C[C@@H](C(C)(C)C)[C@]36[C@@H](OC(=O)[C@@H]6O)O[C@@]4(C(=O)O5)[C@]21O [GINKGOLIDE A] | 3.8 | 0.62 | 2.3 | 4.6
14 | CC1(C)S[C@@H]2[C@H](NC(=O)COc3ccccc3)C(=O)N2[C@H]1C(=O)O [PENICILLIN V] | 0.84 | 0.41 | 6.8 | 1
15 | Clc1ccc2nsnc2c1NC1=NCCN1 [TIZANIDINE] | 2.4 | 2.4 | 11 | 3.6
16 | Nc1nc(O)c2ncn(COC(CO)CO)c2n1 [GANCICLOVIR] | 3.7 | 1 | 4.6 | 3.7
17 | C[C@H](N[C@@H](CCc1ccccc1)C(=O)O)C(=O)N1CCC[C@H]1C(=O)O [ENALAPRILAT ANHYDROUS] | 39 | 0.38 | 1.6 | 4
18 | CCS(=O)(=O)CCn1c([N+](=O)[O-])cnc1C [TINIDAZOLE] | 13 | 0.59 | 0.6 | 16
19 | CCNCC(O)c1cccc(O)c1 (centres undefined) [ETILEFRINE] | 2.2 | 2.1 | 14 | 2.5
20 | CC[N+](C)(C)c1cccc(O)c1.[Br-] [EDROPHONIUM BROMIDE] | 1.8 | 1.1 | 9.6 | 1.9
21 | O=C(O)[C@H]1/C(=C/CO)O[C@@H]2CC(=O)N21 [CLAVULANIC ACID] | 0.9 | 0.22 | 3.1 | 1
22 | CCCCCOc1ccc(-c2ccc(-c3ccc(C(=O)N[C@H]4C[C@@H](O)[C@@H](O)NC(=O)[C@@H]5[C@@H](O)[C@@H](C)CN5C(=O)[C@H]([C@@H](C)O)NC(=O)[C@H]([C@H](O)[C@@H](O)c5ccc(O)cc5)NC(=O)[C@@H]5C[C@@H](O)CN5C(=O)[C@H]([C@@H](C)O)NC4=O)cc3)cc2)cc1 [ANIDULAFUNGIN] ({pTerphenylCO(4''-OnC5H11)}-[Orn(4R-OH,5R-OH)]T[Hyp][hTyr(3S-OH,4S-OH)]T[Pro(3S-OH,4S-Me)]; lactam 1-C) | 40 | 0.57 | 0.21 | 45
23 | CC(C)(C)[C@]1(O)CC2OC(=O)CC23C(=O)OC2OC(=O)[C@H](O)C231 (some centres undefined) [BILOBALIDE] | 3.2 | 2.5 | 10 | 4

Row | SMILES | half-life (clinical [1]) [h] | Vd (clinical [2]) [L/kg] | clearance (clinical [3]) [mL/min/kg] | MRT (clinical [4]) [h]
24 | CC(C)NCC(O)COc1ccc(CCOCC2CC2)cc1 (centres undefined) [BETAXOLOL] | 17 | 4.8 | 3.4 | 24
25 | CN(C(=O)c1c(O)c2ccccc2n(C)c1=O)c1ccccc1 [ROQUINIMEX] | 31 | 0.21 | 0.082 | 43
26 | OCCN1C[C@H](O)[C@@H](O)[C@H](O)[C@H]1CO [MIGLITOL] | 2.3 | 0.28 | 1.7 | 2.7
27 | CN(C)C(=N)N=C(N)N [METFORMIN] | 1.7 | 0.64 | 7.4 | 1.4
28 | Cc1c(OCC(F)(F)F)ccnc1C[S+]([O-])c1nc2ccccc2[nH]1 (centres undefined) [LANSOPRAZOLE] | 1 | 0.28 | 4.4 | 1.1
29 | CNCCC=C1c2ccccc2CCc2ccccc21 [NORTRIPTYLINE] | 30 | 22 | 10 | 37
30 | COc1c(N2CCNC(C)C2)c(F)cc2c(=O)c(C(=O)O)cn(C3CC3)c12 (centres undefined) [GATIFLOXACIN] | 10 | 1.7 | 2.8 | 11
31 | COC(=O)C1=C(C)NC(C)=C(C(=O)OCCCN2CCC(c3ccccc3)(c3ccccc3)CC2)[C@@H]1c1cccc([N+](=O)[O-])c1 [DEXNIGULDIPINE] | 22 | 8.4 | 9.3 | 15
32 | CN(C)CCCN1c2ccccc2Sc2ccc(Cl)cc21 [CHLORPROMAZINE] | 11 | 10 | 16 | 10
33 | COC(=O)Nc1nc2ccc(C(=O)c3ccccc3)cc2[nH]1 [MEBENDAZOLE] | 1.1 | 1.2 | 15 | 1.3
34 | CN[C@@H]1[C@H](O)[C@H](NC)[C@H]2O[C@@]3(O)C(=O)C[C@@H](C)O[C@H]3O[C@@H]2[C@H]1O [SPECTINOMYCIN] | 1.8 | 0.13 | 0.99 | 2.2
35 | CC1=C(C(=O)O)N2C(=O)[C@@H](NC(=O)[C@H](N)c3ccc(O)cc3)[C@H]2SC1 [CEFADROXIL] | 1.1 | 0.23 | 2.5 | 1.5
36 | CC(=N)N1CC[C@H](SC2=C(C(=O)O)N3C(=O)[C@H]([C@@H](C)O)[C@H]3C2)C1 | 0.96 | 0.19 | 2.6 | 1.2
37 | CCC1=C[C@@H]2CN(C1)Cc1c([nH]c3ccccc13)[C@@](C(=O)OC)(c1cc3c(cc1OC)N(C)[C@H]1[C@@](O)(C(=O)OC)[C@H](OC(C)=O)[C@]4(CC)C=CCN5CC[C@]31[C@@H]54)C2 (stereo in doubt; form 1) [VINORELBINE] | 18 | 12 | 12 | 17
38 | N[C@@H](C(=O)N[C@@H]1C(=O)N2C(C(=O)O)=C(CSc3c[nH]nn3)CS[C@H]12)c1ccc(O)cc1 [CEFATRIZINE] | 1.2 | 0.22 | 3.3 | 1.1
39 | CCCc1nc2c(C)cc(-c3nc4ccccc4n3C)cc2n1Cc1ccc(-c2ccccc2C(=O)O)cc1 | 20 | 5.3 | 8.4 | 11
40 | Nc1ccc(S(=O)(=O)Nc2ncccn2)cc1 [SULFADIAZINE] | 7 | 0.29 | 0.55 | 8.8
41 | Cc1onc(-c2c(Cl)cccc2Cl)c1C(=O)N[C@@H]1C(=O)N2[C@@H]1SC(C)(C)[C@@H]2C(=O)O [DICLOXACILLIN] | 0.88 | 0.11 | 2 | 0.92
42 | Cc1cc(O)c2c(=O)c3c(O)cc(O)c4c5c(O)cc(O)c6c(=O)c7c(O)cc(C)c8c1c2c(c34)c(c78)c65 [HYPERICIN] | 42 | 0.25 | 0.13 | 32
43 | Cc1ccc(O)c([C@H](CCN(C(C)C)C(C)C)c2ccccc2)c1 [TOLTERODINE] | 2.4 | 1.5 | 8.4 | 2.98
44 | CC(=O)NC[C@H]1CN(c2ccc(N3CCOCC3)c(F)c2)C(=O)O1 [LINEZOLID] | 4.5 | 0.58 | 1.8 | 5.4
45 | N/N=c1/cc2c(n[nH]1)CCN(C(=O)c1ccccc1)C2 [ENDRALAZINE] | 5.6 | 2.2 | 13 | 2.7
46 | O=C1CN=C(c2ccccn2)c2cc(Br)ccc2N1 [BROMAZEPAM] | 21 | 0.85 | 0.51 | 28
